Measured values as given in publication PMC10552892, “Ebselen oxide and derivatives are new allosteric HER2 inhibitors for HER2‐positive cancers” (Molecular Oncology, 2023).

Columns and labels:
[1] = target: T1, gD-HER2-WT (Homo sapiens, UniProt P04626); assay: Western blot of HBMECs overexpressing gD-HER2-WT; format: cell-based; conditions: 5 μM, 24 h
T1 construct: expressed in transfected cells; host or cells: HBMEC (human bone marrow endothelial cells)
Method: (§1) Human bone marrow endothelial cells (HBMECs) kindly provided by Dr. B. Weksler (Weill Medical College of Cornell University, NY) were cultured as described previously. The human breast cancer cell lines [SKBR3 (RRID:CVCL_0033), BT474 (RRID:CVCL_0179), and MDA‐MB‐231 (RRID:CVCL_0062)], the human gastric [NCI‐87 (RRID:CVCL_1603)] and ovarian [SKOV3 (RRID:CVCL_0532)] cancer cell lines were obtained from the American Type Culture Collection (Manassas, VA) and were maintained in DMEM containing 10% FBS. All cell lines were cultured under 5% CO2 at 37 °C. HBMECs were transfected using Amaxa Inc nucleofector system (Kit V and U015 program). FBS was decreased to 1% to analyze HER2 activation status and HER2‐dependent cell proliferation in SKOV3 as previously described. Periodic tests for Mycoplasma and authentication were performed using commercially available kits.

[2] = target: T2, HER2 in heterodimers with EGFR/HER1 (Homo sapiens, UniProt P04626); assay: Ligand-dependent HER2 activation in HBMECs upon EGF stimulation (western blot); format: cell-based; conditions: 10 μM, 50 ng/ml EGF 5 min
T2 construct: in noncancer cells expressing normal levels of HER2; endogenous in cells; host or cells: HBMEC
T2 sequence (P04626 23-1255, one chain of several): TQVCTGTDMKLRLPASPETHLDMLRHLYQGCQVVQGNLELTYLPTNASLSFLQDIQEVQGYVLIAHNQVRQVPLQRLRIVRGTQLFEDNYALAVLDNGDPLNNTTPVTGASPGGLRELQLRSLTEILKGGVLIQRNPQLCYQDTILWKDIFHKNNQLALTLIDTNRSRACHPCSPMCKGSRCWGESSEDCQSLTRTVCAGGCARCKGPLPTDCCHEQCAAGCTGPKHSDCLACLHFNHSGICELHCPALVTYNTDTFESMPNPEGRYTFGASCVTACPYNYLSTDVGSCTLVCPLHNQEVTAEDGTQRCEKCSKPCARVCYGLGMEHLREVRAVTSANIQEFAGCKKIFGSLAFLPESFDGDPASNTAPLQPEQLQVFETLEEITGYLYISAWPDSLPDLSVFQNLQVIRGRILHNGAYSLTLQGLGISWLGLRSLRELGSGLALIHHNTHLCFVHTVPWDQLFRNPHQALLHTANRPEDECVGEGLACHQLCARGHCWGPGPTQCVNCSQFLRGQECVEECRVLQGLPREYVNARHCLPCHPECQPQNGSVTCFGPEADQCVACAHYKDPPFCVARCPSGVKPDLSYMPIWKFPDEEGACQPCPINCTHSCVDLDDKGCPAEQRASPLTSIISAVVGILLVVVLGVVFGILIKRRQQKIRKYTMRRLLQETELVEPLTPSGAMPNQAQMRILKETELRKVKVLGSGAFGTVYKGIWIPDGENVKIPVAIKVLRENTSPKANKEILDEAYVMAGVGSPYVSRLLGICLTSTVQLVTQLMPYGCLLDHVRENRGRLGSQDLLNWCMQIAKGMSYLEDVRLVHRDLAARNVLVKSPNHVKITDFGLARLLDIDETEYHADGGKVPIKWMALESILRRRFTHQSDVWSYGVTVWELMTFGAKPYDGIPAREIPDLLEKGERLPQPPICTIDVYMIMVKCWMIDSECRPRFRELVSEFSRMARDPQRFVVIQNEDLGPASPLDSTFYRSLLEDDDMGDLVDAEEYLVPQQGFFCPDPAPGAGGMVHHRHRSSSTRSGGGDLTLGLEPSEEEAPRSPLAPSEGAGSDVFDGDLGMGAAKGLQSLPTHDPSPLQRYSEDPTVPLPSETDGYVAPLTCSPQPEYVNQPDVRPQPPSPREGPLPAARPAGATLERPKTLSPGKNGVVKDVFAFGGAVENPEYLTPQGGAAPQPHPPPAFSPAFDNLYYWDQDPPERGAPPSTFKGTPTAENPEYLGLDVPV

[3] = target: T3, HER2 in heterodimers with HER3 (Homo sapiens, UniProt P04626); assay: Ligand-dependent HER2 activation in HBMECs upon HRG stimulation (western blot); format: cell-based; conditions: 10 μM, 100 ng/ml Heregulin-1β 5 min
T3 construct: in noncancer cells expressing normal levels of HER2; endogenous in cells; host or cells: HBMEC
T3 sequence (P04626 23-1255, one chain of several): as above

[4] = system: SKBR3; assay: MTT proliferation assay, SKBR3; format: cell-based, human; conditions: 10 μM
Method: (§2) Fig. 2 Ebselen oxide inhibits HER2 activation, cell proliferation, and anchorage‐independent growth of HER2^+ breast cancer cells. […] Blot and quantification of a representative experiment are shown out of 4 (A), 5 (B), or 2 (C) independent experiments. (D–F) Proliferation curves of HER2‐positive (SKBR3, D or BT474, E) or HER2‐negative (MDA‐MB‐231, F) breast cancer cell lines treated with vehicle or 10 μM ebselen oxide assessed by MTT assay. […] (G–I) Anchorage‐independent growth of SKBR3 (G), BT474 (H), or MDA‐MB‐231 (I) cells treated with vehicle or 10 μM ebselen oxide. […] Scale bars are […].

[5] = system: SKBR3; assay: Soft agar anchorage-independent growth, SKBR3; format: cell-based, human; conditions: 10 μM
Method: (§3) A bottom layer of 0.8% agarose in DMEM supplemented with 20% FBS and penicillin/streptomycin was added to 24‐well plates before seeding 25.10^3 cells per well in a 0.6% agarose top layer. Cells were treated with a vehicle or with 10 μM ebselen oxide or derivatives. Treatments were renewed 3 times a week. After 6 weeks, colonies were visualized with a phase‐contrast microscope and their number and size were quantified using IMAGEJ software.
as §2

[6] = system: MDA-MB-231; assay: Soft agar anchorage-independent growth, MDA-MB-231; format: cell-based, human; conditions: 10 μM
Method: as §3, §2

[7] = target: T4, HER2 (pY1248) in NCI-N87 (Homo sapiens, UniProt P04626); assay: HER2 activation in NCI-N87 gastric cancer cells, western blot; format: cell-based
T4 construct: host or cells: NCI-N87
T4 sequence (P04626 23-1255): as the sequence (P04626 23-1255, one chain of several) above
Method: (A-C) HER2-positive […] (SKBR3, A; NCI-N87, B; BT474, C) treated or not with Ebselen
indicated, were analyzed by western blot to evaluate HER2 activation status using antibodies directed
Proliferation was assessed by Incucyte during 4 days.

[8] = target: T5, HER2 (pY1248) in SKOV3 (Homo sapiens, UniProt P04626); assay: HER2 activation in SKOV3 ovarian cancer cells, western blot; format: cell-based; conditions: ebselen oxide 0–10 μM 24 h, AG1478 5 μM
T5 construct: host or cells: SKOV3
Method: as §1, with “FBS was decreased to 1% to analyze HER2 activation status and HER2‐dependent cell proliferation in SKOV3 as previously described. Periodic tests for Mycoplasma and authentication were performed using commercially available kits.” left out
Fig. 3 Ebselen oxide inhibits HER2 activation and HER2‐dependent proliferation in gastric and ovarian HER2^+ cancer cells. (A) HER2‐positive NCI‐87 gastric cancer cells were treated with ebselen oxide (0–20 μM) for 24 h, lysed, and analyzed by western blot using anti‐pY1248‐HER2, HER2, and β‐tubulin antibodies. […] (B) HER2‐positive SKOV3 ovarian cancer cells were treated with ebselen oxide (0–10 μM) for 24 h, lysed, and analyzed by western blot using anti‐pY1248‐HER2, HER2, and ezrin antibodies. […] (C, D) Proliferation curves of NCI‐N87 gastric (C) or SKOV3 ovarian (D) cancer cells treated with vehicle or 7–10 μM ebselen oxide measured by MTT assay. […]

[9] = system: SKOV3; assay: Proliferation of SKOV3 cells; format: cell-based, human; conditions: ebselen oxide 7–10 μM, AG1478 5 μM
[10] = system: SKBR3; assay: Incucyte proliferation, single agents and combinations, SKBR3; format: cell-based; conditions: Homo sapiens, SK-BR-3, 96 h; read-out: Reduction/inhibition of cell proliferation
Method: (A–C) Proliferation curves of HER2‐positive (SKBR3, A; BT474, B; NCI‐N87, C) cancer cell lines treated or not with ebselen oxide (10 μM), lapatinib (10–1000 nM), or combination of these agents, as indicated. Proliferation was assessed overtime by Incucyte during 4 days. Data are mean ± SD (n = 8–12) of a representative experiment out of 4 (A), 3 (B), or 2 (C) independent experiments. […] Proliferation was assessed by Incucyte during 4 days. […] Scale bars are […].

[11] = system: NCI-N87; assay: Anchorage-independent growth (spheroid assay, ULA plates), NCI-N87; format: cell-based, human; conditions: ebselen oxide 10 μM, lapatinib 10 nM, trastuzumab 10 μg·mL−1, alone or combined
Method: 5.10^3 cells/24‐well were seeded in a complete medium in ULA plates (Corning® Costar® (Corning, NY, USA) C LS3473‐24EA) in the presence of indicated compounds. Spheroids were imaged 6–8 days later with a phase‐contrast microscope, and their areas were measured using IMAGEJ software.
Proliferation was assessed overtime by Incucyte during 4 days. Data are mean ± SD (n = 8–12) of a representative experiment out of 4 (A), 3 (B), or 2 (C) independent experiments. One‐way ANOVA followed by Sidak multiple comparison test, (*, compared with Vehicle; ° and #, respectively, compared with lapatinib 10 and 1000 nM) ***P < 0.001, ****P < 0.0001. […] Proliferation was assessed by Incucyte during 4 days. Data are mean ± SD (n = 8–12) of a representative experiment out of two independent experiments. […] Images of a representative experiment out of 3 (G) or 4 (H) independent experiments and quantification of the colony total area are shown where data are mean ± SEM. One‐way ANOVA followed by multiple comparison test, *P < 0.05, **P < 0.01. Scale bars are 100 μM.

[12] = system: gD-HER2-EBM*; assay: Western blot of HBMECs overexpressing ERM-binding-motif mutant gD-HER2-EBM*; conditions: 5 μM, 24 h, HBMEC
Method: Cells were washed with cold PBS and lysed in a buffer containing 1% Triton, 50 mM Tris–HCl pH 8.8, 25 mM NaCl, 1 mM EDTA, 1 mM Na3VO4, 1 mM AEBSF, 10 μg·mL^−1 each of aprotinin/leupeptin/pepstatin or lysed in Laemmli buffer. Proteins were separated by SDS/PAGE and transferred to nitrocellulose (Schleicher & Schuell, Keene, NH, USA). Membranes were blocked for 1 h in TBS/0.1% Tween20/3% BSA and probed overnight with indicated antibodies. Peroxidase‐coupled secondary antibodies were used to reveal antibody binding using the ECL substrate (Pierce, Thermo Fisher Scientific, Waltham, MA, USA) and Fusion FX (Vilber Lourmat, Collégien, France) chemoluminescence acquisition system. Quantifications were done with IMAGEJ software (1.53e) (NIH, USA).
(G, H) Lysates from HBMECs transfected with vectors encoding gD‐tagged wild‐type HER2 (gD‐HER2‐WT) (G) or the mutant generated with alanine and glycine substitutions within the ERM‐binding motif (gD‐HER2‐EBM*) (H) and treated or not during 24 h with 5 μM ebselen oxide were analyzed by western blot using antibodies against activated HER2 (pY1248), HER2, activated ERK (pERK), and ERK. Representative blots and quantification of data are shown where data are mean ± sem [n = 3 (G); n = 2 (H)].

T1 sequence (P04626 23-1255): as the sequence (P04626 23-1255, one chain of several) above

O=C1c2ccccc2[Se](=O)N1c1ccccc1 (stereo not drawn) [Ebselen oxide, ebselen oxide]
Reduction of phosphorylation level of gD-HER2-WT ([1]; HBMEC): 40% | Reduction in the activation of ERK protein kinase ([1]; HBMEC gD-HER2-WT): 65% | Physiological activation of HER2 in heterodimers and downstream AKT and ERK activation upon EGF [2]: did not alter | Physiological activation of HER2 in heterodimers and downstream AKT and ERK activation upon HRG [3]: did not alter | Reduction of proliferation rate [4]: 35% | Reduction in the size of micro-colonies [5]: more than 40% | Effect on development of micro-colonies [6]: no impact | Effect on HER2 activation ([7]; ebselen oxide 0–20 μM 24 h, AG1478 5 μM): strongly blocked | Effect on HER2 activation, single agents and combination ([7]; ebselen oxide 10 μM, lapatinib 10 nM): partially decreased | Effect on HER2 activation [8]: strongly blocked | Effect on proliferation [9]: reduced proliferation | inhibition at 10 µM [10]: 64% | Reduction of anchorage-independent growth (spheroid assay) [11]: 23% | Downstream activation of ERK induced by gD-HER2-EBM* overexpression [12]: did not reduce | Phosphorylation of gD-HER2-EBM* [12]: did not reduce
